In patent US9006455B2 (Bristol-Myers Squibb Company, priority 2009, dated 2015) one finds EC50 data, which are given here for 15 compounds.

Where two headings read alike, the source gives them in different places.

In this test the test system is HCV 1b genotype. The test is described as follows: HCV Replicon assay (HCV 1b genotype). The following applies: Hepatitis C virus, HCV 1b genotype replicon. The class given is cell-based. As to the method: An HCV Replicon assay was utilized in the present disclosure, and was prepared, conducted and validated as described in commonly owned PCT/US2006/022197 and in O'Boyle et al., Antimicrob. Agents Chemother., 49(4):1346-1353 (April 2005). Assay methods incorporating luciferase reporters have also been used as described (Apath.com).
HCV-neo replicon cells and replicon cells containing resistance substitutions in the NS5A region were used to test the currently described family of compounds. The compounds were determined to have differing degrees of reduced inhibitory activity on cells containing mutations vs. the corresponding inhibitory potency against wild-type cells. Thus, the compounds of the present disclosure can be effective in inhibiting the function of the HCV NS5A protein and are understood to be as effective in combinations as previously described in application PCT/US2006/022197 and commonly owned WO 04/014852. It should be understood that the compounds of the present disclosure can inhibit multiple genotypes of HCV. […] In one embodiment, compounds of the present disclosure are inhibitory versus 1a, 1b, 2a, 2b, 3a, 4a, and 5a genotypes.

The mark [1] stands for this setting: read-out: Range (EC50 values against HCV 1b).

As to `COC(=O)N[C@H](C(=O)N1[C@@H]2C[C@@H]2C[C@H]1c1ncc(C#Cc2ccc3cc(-c4cnc([C@@H]5C[C@H]6C[C@H]6N5C(=O)[C@@H](NC(=O)OC)C5CCOCC5)[nH]4)ccc3c2)[nH]1)C1CCOCC1` [Example 82, Methyl((1S)-2-((1R,3S,5R)-3-(4-(6-((2-((1R,3S,5R)-2-((2S)-2-((methoxycarbonyl)amino)-2-(tetrahydro-2H-pyran-4-yl)acetyl)-2-azabicyclo[3.1.0]hex-3-yl)-1H-imidazol-4-yl)ethynyl)-2-naphthyl)-1H-imidazol-2-yl)-2-azabicyclo[3.1.0]hex-2-yl)-2-oxo-1-(tetrahydro-2H-pyran-4-yl)ethyl)carbamate], the EC50 by setting is: (read-out: EC50) 0.0422 nM; under setting [1], 0.0101 to 1 nM. For `COC(=O)N[C@H](C(=O)N(C)[C@@H](C)c1ncc(-c2ccc(-c3ccc4cc(-c5cnc([C@H](C)N(C)C(=O)[C@@H](NC(=O)OC)C(C)C)[nH]5)ccc4c3)cc2)[nH]1)C(C)C` [Example 126, Methyl((1S)-1-(((1S)-1-(4-(4-(6-(2-((1S)-1-(((2S)-2-((methoxycarbonyl)amino)-3-methylbutanoyl)(methyl)amino)ethyl)-1H-imidazol-4-yl)-2-naphthyl)phenyl)-1H-imidazol-2-yl)ethyl)(methyl)carbamoyl)-2-methylpropyl)carbamate], the EC50 is 0.654 nM (read-out: EC50) and 0.0101 to 1 nM under setting [1]. `COC(=O)N[C@H](C(=O)N1CCC[C@@H]1c1nc2nc(-c3ccc4cc(-c5cnc6[nH]c([C@H]7CCCN7C(=O)[C@@H](NC(=O)OC)C(C)C)nc6n5)ccc4c3)cnc2[nH]1)C(C)C` [Example 25B, Methyl((1S)-1-(((2R)-2-(5-(6-(2-((2R)-1-((2S)-2-((methoxycarbonyl)amino)-3-methylbutanoyl)-2-pyrrolidinyl)-1H-imidazo[4,5-b]pyrazin-5-yl)-2-naphthyl)-1H-imidazo[4,5-b]pyrazin-2-yl)-1-pyrrolidinyl)carbonyl)-2-methylpropyl)carbamate]: the EC50 under setting [1] is 1.01 to 1000 nM. For the compound `COC(=O)N[C@@H](C)C(=O)N1CCC[C@H]1c1nc2ccc(-c3ccc4cc(-c5ccc6nc([C@@H]7CCCN7C(=O)[C@H](C)NC(=O)OC)[nH]c6c5)ccc4c3)cc2[nH]1` [Example 5, Methyl((1S)-2-((2S)-2-(5-(6-(2-((2S)-1-(N-(methoxycarbonyl)-L-alanyl)-2-pyrrolidinyl)-1H-benzimidazol-5-yl)-2-naphthyl)-1H-benzimidazol-2-yl)-1-pyrrolidinyl)-1-methyl-2-oxoethyl)carbamate], the EC50 under setting [1] was 0.0101 to 1 nM.

Consider `COc1cccc2c(C(=O)N3[C@@H]4C[C@@H]4C[C@H]3c3ncc(C#Cc4ccc5cc(-c6cnc([C@@H]7C[C@H]8C[C@H]8N7C(=O)c7nc(Cl)cc8c(OC)cccc78)[nH]6)ccc5c4)[nH]3)nc(Cl)cc12` [Example 93, 3-Chloro-1-(((1R,3S,5R)-3-(4-(6-((2-((1R,3S,5R)-2-((3-chloro-5-methoxy-1-isoquinolinyl)carbonyl)-2-azabicyclo[3.1.0]hex-3-yl)-1H-imidazol-4-yl)ethynyl)-2-naphthyl)-1H-imidazol-2-yl)-2-azabicyclo[3.1.0]hex-2-yl)carbonyl)-5-methoxyisoquinoline], for which the EC50 was 40 nM (read-out: EC50) and 1.01 to 1000 nM under setting [1]. On to `COC(=O)N[C@H](C(=O)N1C(c2ncc(-c3ccc4cc(-c5cccc(-c6c[nH]c([C@@H]7C[C@H]8C[C@H]8N7C(=O)[C@@H](NC(=O)OC)C(C)C)n6)c5)ccc4c3)[nH]2)CC2CC21)C(C)C` (stereo in doubt) [Example 51, Methyl((1S)-1-(((1S,3R,5S)-3-(4-(6-(3-(2-((1R,3S,5R)-2-((2S)-2-((methoxycarbonyl)amino)-3-methylbutanoyl)-2-azabicyclo[3.1.0]hex-3-yl)-1H-imidazol-4-yl)phenyl)-2-naphthyl)-1H-imidazol-2-yl)-2-azabicyclo[3.1.0]hex-2-yl)carbonyl)-2-methylpropyl)carbamate], for which the EC50 under setting [1] lay within 0.0101 to 1 nM. For the compound `CCN(CC)[C@@H](C(=O)N1[C@@H]2C[C@@H]2C[C@H]1c1nc2ccc(-c3ccc4cc(-c5ccc6nc([C@@H]7C[C@H]8C[C@H]8N7C(=O)[C@@H](c7ccccc7)N(CC)CC)[nH]c6c5)ccc4c3)cc2[nH]1)c1ccccc1` [Example 19, (1R)-2-((1R,3S,5R)-3-(5-(6-(2-((1R,3S,5R)-2-((2R)-2-(Diethylamino)-2-phenylacetyl)-2-azabicyclo[3.1.0]hex-3-yl)-1H-benzimidazol-6-yl)-2-naphthyl)-1H-benzimidazol-2-yl)-2-azabicyclo[3.1.0]hex-2-yl)-N,N-diethyl-2-oxo-1-phenylethanamine], the EC50 under setting [1] was in the range of 0.0101 to 1 nM. Turning to `COC(=O)N[C@H](C(=O)N1C[C@@H](C)C[C@H]1c1ncc(-c2ccc(-c3ccc4cc(-c5cnc([C@@H]6C[C@H](C)CN6C(=O)[C@@H](NC(=O)OC)C6CCOCC6)[nH]5)ccc4c3)cc2)[nH]1)C1CCOCC1` [Example 129, Methyl(2-((2S,4S)-2-(4-(4-(6-(2-((2S,4S)-1-(((methoxycarbonyl)amino)(tetrahydro-2H-pyran-4-yl)acetyl)-4-methyl-2-pyrrolidinyl)-1H-imidazol-4-yl)-2-naphthyl)phenyl)-1H-imidazol-2-yl)-4-methyl-1-pyrrolidinyl)-2-oxo-1-(tetrahydro-2H-pyran-4-yl)ethyl)carbamate], the concentration giving a half-maximal response (EC50) under setting [1] lay within 0.0101 to 1 nM.

On to `COC(=O)N[C@H](C(=O)N1CCC[C@H]1c1ncc(-c2ccc3cc(-c4ccc5c(ccc6nc([C@@H]7CCCN7C(=O)[C@@H](NC(=O)OC)C7CCOCC7)[nH]c65)c4)ccc3c2)[nH]1)C1CCOCC1` [Example 42], for which the EC50 under setting [1] lay within 0.0101 to 1 nM. As for `COC(=O)N[C@H](C(=O)N1[C@@H]2C[C@@H]2C[C@H]1c1ncc(C#Cc2ccc3cc(-c4cnc([C@@H]5CC[C@H](C)N5C(=O)[C@@H](NC(=O)OC)C5CCOCC5)[nH]4)ccc3c2)[nH]1)C1CCOCC1` [Example 98, Methyl((1S)-2-((2S,5S)-2-(4-(6-((2-((1R,3S,5R)-2-((2S)-2-((methoxycarbonyl)amino)-2-(tetrahydro-2H-pyran-4-yl)acetyl)-2-azabicyclo[3.1.0]hex-3-yl)-1H-imidazol-4-yl)ethynyl)-2-naphthyl)-1H-imidazol-2-yl)-5-methyl-1-pyrrolidinyl)-2-oxo-1-(tetrahydro-2H-pyran-4-yl)ethyl)carbamate], the EC50 under setting [1] lay within 0.0101 to 1 nM. On the same count and under the same terms, under `CN(C)[C@@H](C(=O)N1CCC[C@H]1c1nc2ccc(-c3ccc4cc(-c5ccc6nc([C@@H]7CCCN7C(=O)[C@@H](c7ccccc7)N(C)C)[nH]c6c5)ccc4c3)cc2[nH]1)c1ccccc1` [Example 8, (1R)-2-((2S)-2-(5-(6-(2-((2S)-1-((2R)-2-(Dimethylamino)-2-phenylacetyl)-2-pyrrolidinyl)-1H-benzimidazol-6-yl)-2-naphthyl)-1H-benzimidazol-2-yl)-1-pyrrolidinyl)-N,N-dimethyl-2-oxo-1-phenylethanamine] stands 0.0101 to 1 nM. As to `COC(=O)N[C@H](C(=O)N1[C@@H]2C[C@@H]2C[C@H]1c1nc2ccc(-c3ccc4cc(-c5ccc6cc(-c7ccc8nc([C@@H]9C[C@H]%10C[C@H]%10N9C(=O)[C@@H](NC(=O)OC)C(C)C)[nH]c8c7)ccc6c5)ccc4c3)cc2[nH]1)C(C)C` [Example 46, Methyl((1S)-1-(((1R,3S,5R)-3-(5-(6′-(2-((1R,3S,5R)-2-((2S)-2-((methoxycarbonyl)amino)-3-methylbutanoyl)-2-azabicyclo[3.1.0]hex-3-yl)-1H-benzimidazol-5-yl)-2,2′-binaphthalen-6-yl)-1H-benzimidazol-2-yl)-2-azabicyclo[3.1.0]hex-2-yl)carbonyl)-2-methylpropyl)carbamate], the EC50 is 170 nM (read-out: EC50) and 1.01 to 1000 nM under setting [1]. On to `CC(=O)N1[C@@H](C)CC[C@H]1c1ncc(-c2ccc(-c3ccc4cc(-c5cnc([C@@H]6CC[C@H](C)N6C(C)=O)[nH]5)ccc4c3)cc2)[nH]1` [Example 109, 2-((2S,5S)-1-Acetyl-5-methyl-2-pyrrolidinyl)-4-(4-(6-(2-((2S,5S)-1-acetyl-5-methyl-2-pyrrolidinyl)-1H-imidazol-4-yl)-2-naphthyl)phenyl)-1H-imidazole], for which the EC50 (read-out: EC50) turned out to be 180 nM and the EC50 under setting [1] fell in the range of 1.01 to 1000 nM.

On to `COC(=O)N[C@H](C(=O)N1CCC[C@H]1c1ncc(-c2ccc(-c3ccc4ccc(-c5ccc6nc([C@@H]7CCCN7C(=O)[C@@H](NC(=O)OC)C(C)C)[nH]c6c5)cc4c3)cc2)[nH]1)C(C)C` [Example 4, Methyl((1S)-1-(((2S)-2-(4-(4-(7-(2-((2S)-1-((2S)-2-((methoxycarbonyl)amino)-3-methylbutanoyl)-2-pyrrolidinyl)-1H-benzimidazol-5-yl)-2-naphthyl)phenyl)-1H-imidazol-2-yl)-1-pyrrolidinyl)carbonyl)-2-methylpropyl)carbamate], for which the EC50 under setting [1] lay in the range of 1.01 to 1000 nM. On to `COC(=O)N[C@H](C(=O)N1[C@@H]2C[C@@H]2C[C@H]1c1ncc(-c2ccc3nc(-c4ccc5nc([C@@H]6C[C@H]7C[C@H]7N6C(=O)[C@@H](NC(=O)OC)C(C)C)[nH]c5c4)cnc3c2)[nH]1)C(C)C` [Example 52, Methyl((1S)-1-(((1R,3S,5R)-3-(4-(2-(2-((1R,3S,5R)-2-((2S)-2-((methoxycarbonyl)amino)-3-methylbutanoyl)-2-azabicyclo[3.1.0]hex-3-yl)-1H-benzimidazol-5-yl)-6-quinoxalinyl)-1H-imidazol-2-yl)-2-azabicyclo[3.1.0]hex-2-yl)carbonyl)-2-methylpropyl)carbamate], for which the EC50 (read-out: EC50) amounted to 0.0059 nM.

One may read the EC50 as the concentration at which the effect is half-maximal.
